This test relates to Candida albicans. The test is described as follows: Candida albicans bioassay. The class given is cell-based. To be noted: bioassay used to monitor HPLC fractions. The method, then: In carrying out the reaction, Compound A, either as a purified compound or as a partially purified sample obtained from the deacylation of Compound B, is dissolved in dry dimethylformamide and the resulting solution intimately contacted with RCOX. The order of addition is not critical. The resulting mixture is stirred at room temperature for about 16 to 20 hours (conveniently overnight) whereupon a reaction takes place with the formation of Compound I. At the end of this period, the dimethylformamide is removed by concentrating in vacuo at 40°C and the resulting residue triturated, preferably sequentially, twice with ether, and then filtered. The filter cake product is generally a free flowing solid and is purified by reverse phase HPLC, typically in 0.5 gram aliquots employing acetonitrile/water as eluting agent. Fractions containing the purified product as determined by C. albicans assay, by U.V. or by refractive index are combined and first concentrated under reduced pressure and then lyophilized to separate the product.

Starred links: 1 amine or outer side, 2 acyl side, 3 side chain; linkers in the order of their positions; H or OH if unused. Positions of bridges follow the written chain, without caps; N, C: chain ends. Non-standard residues stand in square brackets, D forms with d. Residues, ends and D or L forms follow the SMILES beside them. ξ: configuration not given here. ξOrn(4,5-diOH) = O=C(C(CC(O)C(O)N[*:3])N[*:1])[*:2]; ξhTyr(βξ-OH,γξ-OH) = NC(C(=O)O)C(O)C(O)c1ccc(O)cc1; X1 = NC(=O)CC(O)C(N[*:1])C(=O)[*:2]; X2 = O=C(C1C(O)CCN1[*:1])[*:2]; Hyp = O=C(O)[CH]1C[CH](O)CN1

Turning to `CC(O)C1NC(=O)C(N)CC(O)C(O)NC(=O)C2C(O)CCN2C(=O)C(C(O)CC(N)=O)NC(=O)C(C(O)C(O)c2ccc(O)cc2)NC(=O)C2CC(O)CN2C1=O` (stereo not drawn) [non-acylated cyclohexapeptide compound] (H-[ξOrn(4,5-diOH)]T[Hyp][ξhTyr(βξ-OH,γξ-OH)][X1][X2]; lactam 1-C; configuration not given here), the “activity against Candida albicans” value was “inactive”.

The values above are taken from patent EP0447186A1, “N-acylated cyclohexapeptide compounds” (MERCK & CO. INC., priority 1990, dated 1991).
